Measured values published in patent US9796676B2, “Honeybee repellents and uses thereof” (Inscent, Inc., priority 2013, dated 2017).

Columns and labels:
[1] = tested on: Apis mellifera Carniolan foraging worker honeybees; test: Choice test in a free-flight box apparatus; assay type: in vivo; conditions: for P (probability that a honeybee will return to a test dish, nP divided by n): control likelihood without compound 47.5%; for nP (number of tests a honeybee returned to a preferred test dish): free-flight box, 2 μL of 0.05-0.5% compound on filter papers under honey dish
From the text: To determine whether living honeybees will choice to move towards a source of a candidate compound, these compounds will be assayed using a choice test in a free-flight box apparatus.
All tests will be done in a free-flight box apparatus. The apparatus comprises a 244 cm long×46 cm deep×30 cm high clear plastic box including two equally-sized independent testing chambers, each with 10 cm diameter air inlets that admit filtered room air, separated by a smaller central chamber with a screened air outlet to each testing chamber. Air can be pulled through the sealed box via a 10 cm diameter duct from the air outlet using an AQE Fume Fighter 500 fume extractor (BPA Air Quality Solutions, LLC, Charleston, S.C.), which removes the test odors using activated charcoal and HEPA filters. The box is housed in an environmentally controlled room with overhead illumination timed to correspond to the current ambient light cycle including 2 additional sets of lights timed to approximate crepuscular lighting conditions. The bottom of the apparatus will be lined with clean absorbent paper marked with a 4×9 grid pattern, forming 12 cm×12 cm squares with marked coordinates.
Apis mellifera Carniolan foraging worker honeybees will be obtained from a local apiary (typically 60 bees per shipment). Thirty honeybees will be put into each testing chamber and will be allowed to acclimate for 24 hours with food and water freely available. At the beginning of each test day all food will be removed from the test chamber, but water will be continually available throughout all tests. For each test, approximately 0.3 g of organic, raw orange blossom honey will be added to each clean small plastic weigh boat (Cole-Palmer). The honey boats will be placed in small plastic culture dishes, which will be distributed in the marked squares in the chambers. The positions of the dishes on the grid for a set of trials will be chosen to avoid the bees' preferred resting area so that they will have to find the food actively, but the same dish positions will be maintained for a given set of trials. We will use seven dishes of honey: six to which the bees will have access and a seventh that will have a screened lid. The honey in each boat will be weighed on an analytical balance before and after the test, with the screened sample as a control for evaporative loss. The fume extractor will be left off during the experimental trails, and will be turned on to clear the air after the test dishes are covered and removed from the chamber at the end of each trial.
Based on the observation that bees tend to return to dishes in the same position where they have fed before, each set of trials with each group of bees began with “Pattern Identification” tests to see which dishes lose the most weight, reflecting the most feeding. Once bees are consuming an acceptable amount in 10-15 min, typically in 1-2 trials, a set of test compound trials will begin. The test compound will be pipetted onto pieces of filter paper placed on the dish bottom below the boat containing a fresh, weighed honey sample so that the test compound will be inaccessible to the bees. We used 2 μL of a candidate compound at a concentration of 0.05-0.5%, in Triton X-100 or paraffin oil, on each of four pieces of filter paper per dish. The test-solution dishes will be set at the same positions as the one or two dishes favored in the preceding Pattern Identification trial. To eliminate interference from the solvent, the other dishes without the test substance will contain the same volume of the appropriate solvent on filter papers as the test solution dishes. The bees will be allowed to feed for 10-15 minutes. Bee movements will be recorded by a small, wide-angle digital video camcorder (HD Hero 960; GoPro, Halfmoon Bay, Calif.) placed on a tripod in front of the test chamber. […]

[2] = tested on: Apis mellifera Carniolan foraging worker honeybees; test: Proboscis extension response (PER) assay with bees conditioned to 2-heptanone; assay type: in vivo; conditions: 0.5% compound in Triton X-100/water on filter paper, 4 s exposure; only bees giving PER with 2-heptanone and not with water or 15% Triton X-100 controls counted
Procedure: To determine whether a living honeybee can recognize a candidate compound, these compounds were tested using a proboscis extension response (PER) assay using classical conditioning approaches. Proboscis extension response conditioning is a case of appetitive learning, in which bees learn to associate odor stimuli with sucrose reward in the laboratory. In this case, bees were conditioned to produce a PER to 2-heptanone as the conditioned stimulus and a sugar reward as the unconditioned stimulus. These trained bees were then exposed to an odor pulse of a candidate compound to test whether a candidate compound would also produce a PER. If the candidate compound “mimics” 2-heptanone then the honeybee will extend its proboscis.
For conditioning procedures, Apis mellifera Carniolan foraging worker honeybees were obtained from a local apiary (typically 60 bees per shipment). The honeybees were held overnight in insect cages with food and water freely available, in an environmentally controlled room on a light cycle similar to the ambient cycle at the time of the assay.
For conditioning procedures, all tests were done in an odorant delivery apparatus set inside a fume hood. The apparatus comprised a set of open-ended, horizontal, 3 cm diameter by 10 cm long plastic tubes. Each tube was designed where a honeybee could be positioned at the distal end of a tube, with the opening at the other end of the tube located proximal to an inlet of the fume hood. To deliver an odorant, room air was pumped by a diaphragm pump through a particle filter via 0.25 inch plastic tubing at approximately 0.7 m/sec. The air flow passes into the headspace above an odorant (0.5% [v/v] 2-heptanone dissolved in odorless light paraffin oil) contained in a 100 mL bottle. The headspace air then passes through another plastic tube to a manifold of 4-way valves, each of which was attached near the proximal end of a plastic tube containing a bee. Each bee was exposed separately for a desired time period to the odorant by opening and closing the appropriate valve. When each valve was closed, the odor was flushed away immediately by the continuous fume hood air stream.
To train a honeybee to respond to a conditioned and unconditioned stimuli, bees were placed, without anesthesia, in individual 1.5 mL micro-centrifuge holding tubes and held overnight without access to food or water. The holding tubes containing the starved bees were placed in racks in groups of eight. One rack at a time was placed behind the odorant delivery apparatus so that each bee's head is centered at the distal end of a horizontal plastic tube. Each bee was exposed to the 2-heptanone odorant alone for four seconds, and then while being fed an 80% sucrose solution for and additional three seconds. The sucrose solution was delivered on a piece of saturated filter paper held in forceps. […] Positive and negative responses were recorded. A positive PER was scored when a bee extended its proboscis before the sucrose appeared. In a typical trial, 48 individual bees were subjected to conditioning.
After conditioning, honeybees were tested with the candidate compounds the same day or on the following day or, most commonly, both. When held overnight, bees were fed with sucrose and kept in their holding tubes. When tested the day after training, bees were given one or more rounds of conditioning with 2-heptatone to refresh their memories. Candidate compounds stocks were made at 5% (w/v) in polyoxyethylene octyl phenyl ether (TRITON® X-100), a non-ionic detergent/surfactant, and stored at 4° C. […] Test solutions were made fresh daily by mixing stock solutions with water for a final compound concentration of 0.5%. A solution of 0.5% 2-heptanone in paraffin oil was used as a positive control.

[3] = tested on: OBP2; test: Fluorescent-quench ligand-protein-binding assay (OBP2 binding); parameters: species or system Apis mellifera
From the text: To identify a honeybee repellent disclosed herein, candidate compounds were screened based upon the fact that 2-heptanone is an established repellent of bees. 2-heptanone is thought to mediate its behavioral response through binding to a specific odorant-binding protein called OBP2. […] Such assays are generally known in the art. See, e.g., Briand, et al., Ligand-Binding Properties and Structural Characterization of a Novel Rat Odorant-Binding Protein Variant, Eur. J. Biochem. 267(10): 3079-3089 (2000); Briand, et al., Ligand Binding and Physico-Chemical Properties of ASP2, A Recombinant Odorant-Binding Protein From Honeybee (Apis mellifera L.), Eur. J. Biochem. 268(3): 752-760 (2001); Briand, et al., Characterization of a Chemosensory Protein (ASP3c) from Honeybee (Apis mellifera L.) as a Brood Pheromone Carrier, Eur. J. Biochem. 269(18): 4586-4596 (2002), each of which is hereby incorporated by reference in its entirety.

In the case of `Oc1ccc2ccccc2c1C=NNc1ccccn1` [compound 66, 2-hydroxy-1-naphthaldehyde 2-pyridinylhydrazone], the “P (probability that a honeybee will return to a test dish, nP divided by n)” value [1] is reported as 0.379, the “nP (number of tests a honeybee returned to a preferred test dish)” value [1] is reported as 22 and the “2-heptanone positive bees testing positive to compound” value [2] is reported as 24.4%. The “OBP2 binding characteristic of compound” value [3] was “Moderate (Moderate, indicates that 50% or less of the compound bound to OBP2.)”.
For `COc1cc(C2N=C(c3ccccc3)N=C(c3ccccc3)N2)ccc1O` (stereo not shown) [compound 67, 4-(4,6-diphenyl-1,2-dihydro-1,3,5-triazin-2-yl)-2-methoxyphenol], the “P (probability that a honeybee will return to a test dish, nP divided by n)” value [1] was 0.321, the “nP (number of tests a honeybee returned to a preferred test dish)” value [1] was 9 and the “2-heptanone positive bees testing positive to compound” value [2] was 26.5%. For the same compound, the “OBP2 binding characteristic of compound” value [3] was “Moderate (Moderate, indicates that 50% or less of the compound bound to OBP2.)”.
With `CC(=O)c1ccccc1NC(=O)C1CCC(C(=O)Nc2ccccc2C(C)=O)S1` (stereo not shown) [compound 68, N,N′-bis(2-acetylphenyl)tetrahydro-2,5-thiophenedicarboxamide] the “P (probability that a honeybee will return to a test dish, nP divided by n)” value [1] was 0.5, the “nP (number of tests a honeybee returned to a preferred test dish)” value [1] was 2 and the “2-heptanone positive bees testing positive to compound” value [2] was 20.8%. The “OBP2 binding characteristic of compound” value [3] was “Moderate (Moderate, indicates that 50% or less of the compound bound to OBP2.)”.
For `Oc1ccc2ccccc2c1C=Nc1ccc(I)cc1` [compound 74, 1-{[(4-iodophenyl)imino]methyl}-2-naphthol], the “P (probability that a honeybee will return to a test dish, nP divided by n)” value [1] was 0.45, the “nP (number of tests a honeybee returned to a preferred test dish)” value [1] was 18 and the “2-heptanone positive bees testing positive to compound” value [2] was 25.0%. For the same compound, the “OBP2 binding characteristic of compound” value [3] was “Moderate (Moderate, indicates that 50% or less of the compound bound to OBP2.)”.
`Nc1c(C(=O)c2ccccc2)sc2nc(-c3cccnc3)ccc12` [compound 75, [3-amino-6-(3-pyridinyl)thieno[2,3-b]pyridin-2-yl](phenyl)methanone] was tested, and the “P (probability that a honeybee will return to a test dish, nP divided by n)” value [1] was 0.542, the “nP (number of tests a honeybee returned to a preferred test dish)” value [1] was 13 and the “2-heptanone positive bees testing positive to compound” value [2] was 25.0%. The “OBP2 binding characteristic of compound” value [3] was “Moderate (Moderate, indicates that 50% or less of the compound bound to OBP2.)”.
With `CCOc1ccccc1C=NN1C(=O)c2ccccc2C1=O` [compound 79] the “P (probability that a honeybee will return to a test dish, nP divided by n)” value [1] was 1, the “nP (number of tests a honeybee returned to a preferred test dish)” value [1] was 2 and the “2-heptanone positive bees testing positive to compound” value [2] was 23.1%. For the same compound, the “OBP2 binding characteristic of compound” value [3] was “Moderate (Moderate, indicates that 50% or less of the compound bound to OBP2.)”.
With `c1ccc(Oc2cc(-n3cccn3)nc(-c3ccccc3)n2)cc1` [compound 80, 4-phenoxy-2-phenyl-6-(1H-pyrazol-1-yl)pyrimidine] the “P (probability that a honeybee will return to a test dish, nP divided by n)” value [1] was 0.333, the “nP (number of tests a honeybee returned to a preferred test dish)” value [1] was 2 and the “2-heptanone positive bees testing positive to compound” value [2] was 20.0%. For the same compound, the “OBP2 binding characteristic of compound” value [3] was “Moderate (Moderate, indicates that 50% or less of the compound bound to OBP2.)”.
`CCOC(=O)c1cc(CC)sc1NC(=O)c1ccccc1` [compound 81, ethyl 2-(benzoylamino)-5-ethyl-3-thiophenecarboxylate] was tested, and the “P (probability that a honeybee will return to a test dish, nP divided by n)” value [1] was 0.333, the “nP (number of tests a honeybee returned to a preferred test dish)” value [1] was 6 and the “2-heptanone positive bees testing positive to compound” value [2] was 37.5%. For the same compound, the “OBP2 binding characteristic of compound” value [3] was “Moderate (Moderate, indicates that 50% or less of the compound bound to OBP2.)”.
`Oc1c(Br)cc(Cl)cc1C=Nc1ccccn1` [compound 83, 2-bromo-4-chloro-6-[(2-pyridinylimino)methyl]phenol] was tested, and the “P (probability that a honeybee will return to a test dish, nP divided by n)” value [1] was 0.278, the “nP (number of tests a honeybee returned to a preferred test dish)” value [1] was 10 and the “2-heptanone positive bees testing positive to compound” value [2] was 47.7%. The “OBP2 binding characteristic of compound” value [3] was “Moderate (Moderate, indicates that 50% or less of the compound bound to OBP2.)”.
With `O=C(NN=Cc1ccc(-c2cccc(Cl)c2Cl)o1)c1ccncc1` [compound 113] the “2-heptanone positive bees testing positive to compound” value [2] was 11.1% and the “OBP2 binding characteristic of compound” value [3] was “Moderate (Moderate, indicates that 50% or less of the compound bound to OBP2.)”.
`COc1ccc(-c2ccc(C=NNC(=O)c3ccccn3)o2)cc1Cl` [compound 114] was tested, and the “2-heptanone positive bees testing positive to compound” value [2] was 22.2% and the “OBP2 binding characteristic of compound” value [3] was “Moderate (Moderate, indicates that 50% or less of the compound bound to OBP2.)”.
`CCN1C(=O)C(=Cc2cc(Br)ccc2OC)SC1=S` [compound 115] was tested, and the “2-heptanone positive bees testing positive to compound” value [2] was 40.0% and the “OBP2 binding characteristic of compound” value [3] was “Moderate (Moderate, indicates that 50% or less of the compound bound to OBP2.)”.
For `CCN1C(=O)C(=Cc2cc(Br)ccc2O)SC1=S` [compound 116], the “2-heptanone positive bees testing positive to compound” value [2] was 25.0% and the “OBP2 binding characteristic of compound” value [3] was “Moderate (Moderate, indicates that 50% or less of the compound bound to OBP2.)”.
In the case of `O=C(c1ccccc1)N1N=C(c2ccccc2)CC1(O)C(F)(F)F` (stereo not shown) [compound 119], the “2-heptanone positive bees testing positive to compound” value [2] is reported as 60.0% and the “OBP2 binding characteristic of compound” value [3] is reported as “Moderate (Moderate, indicates that 50% or less of the compound bound to OBP2.)”.
